Measured values reported in ChEMBL document CHEMBL5058646 (2022).

How the values were obtained:
[1] = biological target: BMP-2-inducible protein kinase (Homo sapiens) (UniProt Q9NSY1); assay: BMP2K SGC Tm panel (DSF); conditions: Compound concentration 20.0 uM
[2] = biological target: T1, Telomere zinc finger-associated protein (Homo sapiens) (UniProt P10074); conditions: SUD4, Compound concentration 1.0 uM
T1 sequence (whole entry): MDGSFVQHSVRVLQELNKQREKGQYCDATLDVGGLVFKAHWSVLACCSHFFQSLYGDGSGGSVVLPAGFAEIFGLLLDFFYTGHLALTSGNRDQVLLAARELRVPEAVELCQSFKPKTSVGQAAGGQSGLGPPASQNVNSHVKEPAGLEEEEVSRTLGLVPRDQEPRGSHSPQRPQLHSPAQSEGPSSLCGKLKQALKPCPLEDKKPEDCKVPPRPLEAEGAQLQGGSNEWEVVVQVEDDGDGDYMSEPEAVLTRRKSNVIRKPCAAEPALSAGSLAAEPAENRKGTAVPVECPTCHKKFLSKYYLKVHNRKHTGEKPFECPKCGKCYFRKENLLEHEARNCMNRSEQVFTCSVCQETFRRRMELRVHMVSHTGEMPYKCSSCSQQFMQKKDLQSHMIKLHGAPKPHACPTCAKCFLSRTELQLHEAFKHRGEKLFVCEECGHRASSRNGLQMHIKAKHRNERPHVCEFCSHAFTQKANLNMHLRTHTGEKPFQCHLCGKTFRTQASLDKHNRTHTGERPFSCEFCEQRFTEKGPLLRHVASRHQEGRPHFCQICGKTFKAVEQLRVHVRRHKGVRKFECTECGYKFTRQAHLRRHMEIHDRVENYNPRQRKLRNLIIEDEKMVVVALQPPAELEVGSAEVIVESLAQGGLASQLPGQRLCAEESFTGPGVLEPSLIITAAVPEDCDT

[3] = biological target: T2, Zinc finger and BTB domain-containing protein 40 (Homo sapiens) (UniProt Q9NUA8); conditions: SUD4, Compound concentration 1.0 uM
T2 sequence (whole entry): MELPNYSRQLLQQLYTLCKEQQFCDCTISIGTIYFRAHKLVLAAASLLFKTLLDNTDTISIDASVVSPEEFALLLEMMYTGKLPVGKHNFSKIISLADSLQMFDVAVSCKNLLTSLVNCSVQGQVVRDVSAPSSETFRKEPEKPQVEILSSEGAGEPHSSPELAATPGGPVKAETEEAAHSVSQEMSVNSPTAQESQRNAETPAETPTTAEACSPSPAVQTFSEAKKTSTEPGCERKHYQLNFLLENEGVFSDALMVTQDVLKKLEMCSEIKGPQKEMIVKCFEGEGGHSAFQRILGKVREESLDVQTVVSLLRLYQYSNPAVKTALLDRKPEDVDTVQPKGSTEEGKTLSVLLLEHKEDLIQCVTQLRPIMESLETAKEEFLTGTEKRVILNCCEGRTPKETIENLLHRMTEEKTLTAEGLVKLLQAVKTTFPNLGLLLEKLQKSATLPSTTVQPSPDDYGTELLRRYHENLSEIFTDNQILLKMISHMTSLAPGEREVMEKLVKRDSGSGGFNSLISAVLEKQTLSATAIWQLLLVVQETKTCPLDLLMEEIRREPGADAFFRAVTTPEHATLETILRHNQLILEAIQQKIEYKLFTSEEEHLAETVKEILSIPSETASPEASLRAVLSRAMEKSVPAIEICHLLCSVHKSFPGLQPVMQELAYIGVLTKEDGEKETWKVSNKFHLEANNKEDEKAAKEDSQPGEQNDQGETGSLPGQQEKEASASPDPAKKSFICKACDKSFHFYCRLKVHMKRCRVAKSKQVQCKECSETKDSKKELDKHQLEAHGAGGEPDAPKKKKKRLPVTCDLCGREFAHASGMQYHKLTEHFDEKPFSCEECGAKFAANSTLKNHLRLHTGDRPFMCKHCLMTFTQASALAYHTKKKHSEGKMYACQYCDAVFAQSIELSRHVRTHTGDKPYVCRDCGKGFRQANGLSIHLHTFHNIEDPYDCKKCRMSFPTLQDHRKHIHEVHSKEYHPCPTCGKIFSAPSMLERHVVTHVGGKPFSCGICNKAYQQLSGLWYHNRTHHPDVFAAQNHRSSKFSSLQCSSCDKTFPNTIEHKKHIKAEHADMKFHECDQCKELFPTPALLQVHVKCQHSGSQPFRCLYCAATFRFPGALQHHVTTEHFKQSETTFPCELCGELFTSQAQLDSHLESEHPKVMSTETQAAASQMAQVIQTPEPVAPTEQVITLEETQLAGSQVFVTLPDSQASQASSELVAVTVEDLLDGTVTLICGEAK

[4] = biological target: Death-associated protein kinase 1 (Homo sapiens) (UniProt P53355); assay: DAPK1 SGC Tm panel (DSF); conditions: Compound concentration 20.0 uM
[5] = biological target: Mitogen-activated protein kinase 10 (Homo sapiens) (UniProt P53779); assay: MAPK10 SGC Tm panel (DSF); conditions: Compound concentration 20.0 uM
Chain of Mitogen-activated protein kinase 10 (Homo sapiens) (P53779 whole entry): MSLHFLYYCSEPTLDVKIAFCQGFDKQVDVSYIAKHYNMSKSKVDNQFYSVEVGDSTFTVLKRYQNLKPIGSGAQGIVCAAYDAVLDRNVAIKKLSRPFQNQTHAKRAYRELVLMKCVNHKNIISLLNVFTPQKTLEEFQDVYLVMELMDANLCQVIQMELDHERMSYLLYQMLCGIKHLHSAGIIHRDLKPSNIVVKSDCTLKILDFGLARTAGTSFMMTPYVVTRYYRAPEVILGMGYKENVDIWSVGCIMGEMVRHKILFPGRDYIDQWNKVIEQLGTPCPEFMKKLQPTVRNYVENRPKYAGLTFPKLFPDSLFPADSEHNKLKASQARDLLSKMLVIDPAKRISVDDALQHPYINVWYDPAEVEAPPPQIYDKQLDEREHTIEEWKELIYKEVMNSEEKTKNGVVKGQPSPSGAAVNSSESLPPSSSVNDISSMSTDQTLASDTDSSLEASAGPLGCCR

[6] = biological target: Serine/threonine-protein kinase 38-like (Homo sapiens) (UniProt Q9Y2H1); assay: STK38L SGC Tm panel (DSF); conditions: Compound concentration 20.0 uM
Chain of Serine/threonine-protein kinase 38-like (Homo sapiens) (Q9Y2H1 2-464 limits assumed): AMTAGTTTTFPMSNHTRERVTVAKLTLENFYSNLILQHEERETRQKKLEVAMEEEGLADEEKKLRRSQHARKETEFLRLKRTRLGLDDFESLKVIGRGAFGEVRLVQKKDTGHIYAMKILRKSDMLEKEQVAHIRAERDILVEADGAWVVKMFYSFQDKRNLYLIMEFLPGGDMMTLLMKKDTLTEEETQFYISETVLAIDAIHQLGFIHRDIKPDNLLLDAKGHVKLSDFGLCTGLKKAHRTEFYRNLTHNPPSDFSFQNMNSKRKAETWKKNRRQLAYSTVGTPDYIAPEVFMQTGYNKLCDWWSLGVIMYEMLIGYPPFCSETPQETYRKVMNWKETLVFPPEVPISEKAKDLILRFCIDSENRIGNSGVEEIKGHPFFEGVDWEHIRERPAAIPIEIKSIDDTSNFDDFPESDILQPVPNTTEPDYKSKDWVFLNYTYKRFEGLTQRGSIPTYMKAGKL

[7] = biological target: Vascular endothelial growth factor receptor 1 (Homo sapiens) (UniProt P17948); assay: FLT1 SGC Tm panel (DSF); conditions: Compound concentration 20.0 uM
[8] = biological target: G protein-coupled receptor kinase 5 (Homo sapiens) (UniProt P34947); assay: GPRK5 SGC Tm panel (DSF); conditions: Compound concentration 20.0 uM
[9] = biological target: D(1B) dopamine receptor (Homo sapiens) (UniProt P21918); conditions: Compound concentration 10.0 uM
Chain of D(1B) dopamine receptor (Homo sapiens) (P21918 whole entry): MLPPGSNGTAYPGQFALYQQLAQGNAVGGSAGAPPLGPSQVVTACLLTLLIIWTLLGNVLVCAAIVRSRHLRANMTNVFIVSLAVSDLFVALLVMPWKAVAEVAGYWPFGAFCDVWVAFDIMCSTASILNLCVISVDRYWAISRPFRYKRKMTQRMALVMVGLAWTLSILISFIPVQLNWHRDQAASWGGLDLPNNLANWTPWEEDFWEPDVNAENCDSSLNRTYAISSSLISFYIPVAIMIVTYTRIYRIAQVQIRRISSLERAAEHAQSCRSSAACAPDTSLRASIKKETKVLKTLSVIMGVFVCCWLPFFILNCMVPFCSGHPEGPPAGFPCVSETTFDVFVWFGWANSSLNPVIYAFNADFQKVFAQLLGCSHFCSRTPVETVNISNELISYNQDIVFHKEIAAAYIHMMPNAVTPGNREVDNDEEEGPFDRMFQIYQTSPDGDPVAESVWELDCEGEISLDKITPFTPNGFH

[10] = biological target: Serine/threonine-protein kinase VRK1 (Homo sapiens) (UniProt Q99986); assay: VRK1 SGC Tm panel (DSF); conditions: Compound concentration 20.0 uM
Chain of Serine/threonine-protein kinase VRK1 (Homo sapiens) (Q99986 whole entry): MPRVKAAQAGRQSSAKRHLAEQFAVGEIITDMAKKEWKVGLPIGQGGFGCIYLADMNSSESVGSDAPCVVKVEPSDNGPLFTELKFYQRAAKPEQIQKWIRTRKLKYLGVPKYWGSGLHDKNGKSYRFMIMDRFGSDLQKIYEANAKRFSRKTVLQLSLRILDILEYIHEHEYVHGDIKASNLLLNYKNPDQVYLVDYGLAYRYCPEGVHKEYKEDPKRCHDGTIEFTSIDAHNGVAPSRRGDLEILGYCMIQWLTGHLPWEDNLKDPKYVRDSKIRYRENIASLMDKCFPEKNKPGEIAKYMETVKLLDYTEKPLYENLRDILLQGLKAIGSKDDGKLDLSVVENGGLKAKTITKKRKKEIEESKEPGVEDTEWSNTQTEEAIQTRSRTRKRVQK

[11] = biological target: Transcription regulator protein BACH2 (Homo sapiens) (UniProt Q9BYV9); conditions: SUD4, Compound concentration 1.0 uM
Chain of Transcription regulator protein BACH2 (Homo sapiens) (Q9BYV9 whole entry): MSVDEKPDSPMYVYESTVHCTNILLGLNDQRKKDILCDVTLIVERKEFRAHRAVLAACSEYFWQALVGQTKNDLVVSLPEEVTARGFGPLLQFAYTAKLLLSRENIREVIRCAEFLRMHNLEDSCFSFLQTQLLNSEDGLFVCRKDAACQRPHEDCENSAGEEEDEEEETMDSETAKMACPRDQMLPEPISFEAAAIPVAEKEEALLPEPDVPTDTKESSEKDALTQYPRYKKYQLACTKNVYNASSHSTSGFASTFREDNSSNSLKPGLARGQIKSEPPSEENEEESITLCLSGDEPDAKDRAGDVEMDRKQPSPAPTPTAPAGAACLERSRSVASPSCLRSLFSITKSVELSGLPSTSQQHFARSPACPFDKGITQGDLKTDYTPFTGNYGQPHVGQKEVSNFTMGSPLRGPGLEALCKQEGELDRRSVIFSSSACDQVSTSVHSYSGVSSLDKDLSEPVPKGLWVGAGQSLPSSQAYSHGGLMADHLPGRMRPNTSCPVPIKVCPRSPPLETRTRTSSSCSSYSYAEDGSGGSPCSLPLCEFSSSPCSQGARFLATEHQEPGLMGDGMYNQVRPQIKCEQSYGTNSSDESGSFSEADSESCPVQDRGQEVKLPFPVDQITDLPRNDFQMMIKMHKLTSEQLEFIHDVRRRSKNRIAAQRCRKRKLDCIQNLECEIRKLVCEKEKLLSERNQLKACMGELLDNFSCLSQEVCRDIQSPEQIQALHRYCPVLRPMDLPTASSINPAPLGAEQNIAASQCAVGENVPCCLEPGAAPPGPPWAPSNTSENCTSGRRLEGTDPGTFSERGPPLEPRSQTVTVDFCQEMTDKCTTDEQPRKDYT

[12] = biological target: 5-hydroxytryptamine receptor 1D (Homo sapiens, UniProt P28221); assay: GPCRScan assay: inhibition of 5-HT1D; set-up: radioligand conc. used [nm] 1.0 – 2.0, parental cells HEKT
Chain of 5-hydroxytryptamine receptor 1D (P28221 whole entry): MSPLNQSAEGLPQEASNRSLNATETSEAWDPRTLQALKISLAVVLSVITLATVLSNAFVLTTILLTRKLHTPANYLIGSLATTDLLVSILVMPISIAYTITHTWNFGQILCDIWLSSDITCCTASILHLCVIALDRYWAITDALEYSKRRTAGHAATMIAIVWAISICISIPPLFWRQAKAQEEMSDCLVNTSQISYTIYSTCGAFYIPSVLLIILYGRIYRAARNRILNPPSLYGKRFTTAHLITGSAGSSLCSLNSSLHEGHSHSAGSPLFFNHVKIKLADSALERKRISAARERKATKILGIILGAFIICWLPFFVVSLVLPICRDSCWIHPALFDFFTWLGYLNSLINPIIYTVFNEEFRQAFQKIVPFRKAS

[13] = biological target: Serine/threonine-protein kinase Chk2 (Homo sapiens) (UniProt O96017); assay: CHEK2 SGC Tm panel (DSF); conditions: Compound concentration 20.0 uM
[14] = biological target: Cytoplasmic tyrosine-protein kinase BMX (Homo sapiens) (UniProt P51813); assay: BMX SGC Tm panel (DSF); conditions: Compound concentration 20.0 uM
Chain of Cytoplasmic tyrosine-protein kinase BMX (Homo sapiens) (P51813 whole entry): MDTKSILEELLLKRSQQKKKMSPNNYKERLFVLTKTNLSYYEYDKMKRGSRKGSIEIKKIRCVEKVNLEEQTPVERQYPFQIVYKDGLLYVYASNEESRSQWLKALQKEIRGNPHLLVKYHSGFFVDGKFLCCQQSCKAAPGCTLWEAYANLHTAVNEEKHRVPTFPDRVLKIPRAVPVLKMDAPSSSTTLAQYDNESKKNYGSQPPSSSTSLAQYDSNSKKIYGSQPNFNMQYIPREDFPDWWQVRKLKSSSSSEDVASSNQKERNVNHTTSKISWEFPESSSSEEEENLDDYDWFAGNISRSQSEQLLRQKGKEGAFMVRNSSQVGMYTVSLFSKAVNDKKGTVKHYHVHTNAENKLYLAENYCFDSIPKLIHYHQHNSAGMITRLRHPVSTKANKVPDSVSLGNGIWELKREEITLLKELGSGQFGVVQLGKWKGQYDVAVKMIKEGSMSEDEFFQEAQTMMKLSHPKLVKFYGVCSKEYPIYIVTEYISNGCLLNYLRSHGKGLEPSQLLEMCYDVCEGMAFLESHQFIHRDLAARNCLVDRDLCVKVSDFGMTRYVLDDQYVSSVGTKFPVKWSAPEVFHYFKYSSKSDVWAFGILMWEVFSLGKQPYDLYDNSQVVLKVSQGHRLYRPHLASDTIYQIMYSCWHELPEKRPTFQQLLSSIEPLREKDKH

[15] = biological target: Protein archease (Homo sapiens) (UniProt Q8IWT0); conditions: SUD4, Compound concentration 1.0 uM
Chain of Protein archease (Homo sapiens) (Q8IWT0 whole entry): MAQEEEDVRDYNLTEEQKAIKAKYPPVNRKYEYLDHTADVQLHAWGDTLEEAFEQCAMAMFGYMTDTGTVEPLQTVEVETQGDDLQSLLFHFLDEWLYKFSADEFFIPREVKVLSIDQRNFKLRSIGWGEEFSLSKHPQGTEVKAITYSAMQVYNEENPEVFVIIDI

Chain of BMP-2-inducible protein kinase (Homo sapiens) (Q9NSY1 whole entry, looked up): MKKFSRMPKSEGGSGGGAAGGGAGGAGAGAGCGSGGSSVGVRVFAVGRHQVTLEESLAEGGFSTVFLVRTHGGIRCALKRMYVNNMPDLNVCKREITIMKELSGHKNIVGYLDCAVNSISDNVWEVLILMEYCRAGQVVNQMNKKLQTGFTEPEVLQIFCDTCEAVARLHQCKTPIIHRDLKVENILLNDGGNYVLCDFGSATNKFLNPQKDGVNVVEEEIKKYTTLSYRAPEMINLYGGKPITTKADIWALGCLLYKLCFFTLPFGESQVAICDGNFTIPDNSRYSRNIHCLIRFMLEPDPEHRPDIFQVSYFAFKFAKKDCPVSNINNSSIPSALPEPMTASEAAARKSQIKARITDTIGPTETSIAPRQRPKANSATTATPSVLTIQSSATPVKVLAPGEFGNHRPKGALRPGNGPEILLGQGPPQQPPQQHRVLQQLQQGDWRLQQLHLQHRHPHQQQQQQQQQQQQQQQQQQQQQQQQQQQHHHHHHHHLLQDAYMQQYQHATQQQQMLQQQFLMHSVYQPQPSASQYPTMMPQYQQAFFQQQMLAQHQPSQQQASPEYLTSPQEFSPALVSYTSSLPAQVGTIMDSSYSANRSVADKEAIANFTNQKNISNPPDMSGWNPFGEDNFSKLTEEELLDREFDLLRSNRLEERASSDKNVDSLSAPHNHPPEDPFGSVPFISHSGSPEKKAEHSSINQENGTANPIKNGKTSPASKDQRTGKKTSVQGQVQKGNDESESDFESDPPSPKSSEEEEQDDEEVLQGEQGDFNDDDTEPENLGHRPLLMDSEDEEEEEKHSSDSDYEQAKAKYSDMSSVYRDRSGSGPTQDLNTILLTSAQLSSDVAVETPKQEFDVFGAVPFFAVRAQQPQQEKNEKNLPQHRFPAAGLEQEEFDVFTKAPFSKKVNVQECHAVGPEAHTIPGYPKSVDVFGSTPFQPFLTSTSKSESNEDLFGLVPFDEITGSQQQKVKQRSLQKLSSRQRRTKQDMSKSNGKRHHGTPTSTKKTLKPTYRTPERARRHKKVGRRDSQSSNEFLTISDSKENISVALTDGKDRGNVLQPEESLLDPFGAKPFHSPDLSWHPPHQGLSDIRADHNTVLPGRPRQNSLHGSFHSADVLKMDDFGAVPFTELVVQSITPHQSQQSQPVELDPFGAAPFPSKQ

Tm [1]: 43 °C | LogFC [2]: -0.0152 | LogFC [3]: -0.00123 | Tm [5]: 48 °C | Tm [6]: 47 °C | Tm [7]: 45 °C | Tm [8]: 40 °C | inhibition [9]: 26.2% | Tm [10]: 46 °C | LogFC [11]: -0.0895 | Ki [12]: 6.17 µM | Tm [13]: 44 °C | Tm [14]: 48 °C | LogFC [15]: 0.0264
SMILES: C[C@@H]1CN(c2ncc(Cl)c(Nc3ccc4c(c3)n(CCC(C)(C)O)c(=O)n4C)n2)C[C@H](C)C1(F)F
Tm [4]: 53 °C
